Several values for one entry are separate records, joined by “and”; a condition that tells them apart may be missing. Identical values can stand only once.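 Where inhibition never reached the appropriate level, the endpoint shown equals the highest concentration tested. Otherwise, values were interpolated linearly from a five-concentration, 48-hour dose response in 96-well plates. GI50: concentration for 50% inhibition of growth. At the TGI there is no net growth.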

Among the test systems are NCI-H522 lung; U251 CNS; SK-MEL-28 melanoma; SF-295 CNS; KM12 colon; SW-620 colon; NCI/ADR-RES ovarian; M14 melanoma; NCI-H460 lung; RXF 393 renal.
Common to all, as to assay: inhibition of tumour cell growth, NCI panel, 48 h

In the case of `Cc1cc2nc3ccc(N=Nc4ccc(N(C)C)cc4)cc3n(-c3ccccc3)c-2cc1=N`, the GI50 in the assay on NCI-H522 lung is 0.0199 µM and 0.147 µM; in the assay on U251 CNS it was 0.0183 µM; in the assay with SK-MEL-28 melanoma, 0.0573 µM; in the assay with SF-295 CNS, 0.0154 µM and 0.0314 µM; in the assay on KM12 colon it was 0.0174 µM; in the assay with SW-620 colon, 0.0221 µM. Also, the figures for the GI50 in the assay with NCI/ADR-RES ovarian, in the assay with M14 melanoma and with NCI-H460 lung were 0.279 µM, 0.0657 µM and 0.0146 µM, respectively. In addition, the TGI in the assay with U251 CNS came out at 0.114 µM; in the assay with SK-MEL-28 melanoma it was 0.241 µM; with KM12 colon it was 0.116 µM; with SW-620 colon, 0.12 µM; in the assay with NCI/ADR-RES ovarian it was 3.13 µM; with M14 melanoma, 0.239 µM. Besides, in the assay on NCI-H460 lung, the TGI turned out to be 0.0527 µM.
Regarding `COc1cc(/C=C/C(=O)c2c(C)n([O-])c3cc(C)c(C)cc3[n+]2=O)cc(OC)c1OC`, the GI50 with NCI-H522 lung was 10.9 µM; in the assay on U251 CNS it was 12 µM; with SK-MEL-28 melanoma, 19 µM; in the assay on SF-295 CNS it was 13.2 µM; in the assay on KM12 colon it was 13.1 µM; in the assay on SW-620 colon, 13.6 µM. Further, the GI50 in the assay with NCI/ADR-RES ovarian is 23 µM; in the assay with M14 melanoma, 16.1 µM; with NCI-H460 lung it was 10.9 µM. For the same molecule, the TGI in the assay on NCI-H522 lung turned out to be 28.9 µM; in the assay with U251 CNS it was 25.8 µM; with SK-MEL-28 melanoma, 46.7 µM; in the assay on SF-295 CNS, 34.8 µM; in the assay on KM12 colon, 32.6 µM; in the assay on SW-620 colon, 40.7 µM. Moreover, the TGI in the assay on NCI/ADR-RES ovarian was 56.6 µM; in the assay on M14 melanoma, 60.2 µM; in the assay with NCI-H460 lung it was 26.3 µM.
For the molecule `COc1ccc2nc(-c3ccccc3)cc(Nc3ccc(/C(C)=N/O)cc3)c2c1`, the GI50 in the assay on NCI-H522 lung is 14.9 µM; in the assay on U251 CNS, 6.7 µM; with SK-MEL-28 melanoma, 3.13 µM; in the assay on SF-295 CNS, 2.21 µM; in the assay on KM12 colon it was 3.74 µM; with SW-620 colon, 2.72 µM. Moreover, the figures for the GI50 with NCI/ADR-RES ovarian, in the assay on M14 melanoma and with NCI-H460 lung were 2.75 µM, 1.46 µM and 2.8 µM, respectively. For the same molecule, the TGI in the assay on NCI-H522 lung was over 24.6 µM; in the assay with U251 CNS, over 67.1 µM; with SK-MEL-28 melanoma, over 100 µM; in the assay on SF-295 CNS, 5.23 µM; with KM12 colon, over 100 µM; in the assay with SW-620 colon, over 22.1 µM. The figures for the TGI with NCI/ADR-RES ovarian, in the assay on M14 melanoma and in the assay with NCI-H460 lung were over 24.6 µM, 2.78 µM and over 23.3 µM, respectively.
As to `CC(C)[C@@H](C(=O)O[C@@H]1/C=C/C(=O)O[C@@H](C)CCC/C=C/[C@@H]2C[C@H](O)C[C@H]21)[N+](C)(C)C`, the GI50 in the assay with NCI-H522 lung, with U251 CNS, with SK-MEL-28 melanoma, in the assay on SF-295 CNS, with KM12 colon and in the assay on SW-620 colon was over 100 µM each time. The GI50 with NCI/ADR-RES ovarian, with M14 melanoma and in the assay with NCI-H460 lung was over 100 µM in each case. Moreover, the TGI in the assay with NCI-H522 lung, with U251 CNS, with SK-MEL-28 melanoma, in the assay on SF-295 CNS, in the assay with KM12 colon and with SW-620 colon was over 100 µM in each case. Moreover, the TGI with NCI/ADR-RES ovarian, with M14 melanoma and in the assay on NCI-H460 lung was over 100 µM throughout.
On to `COc1cc(C/C=C/c2ccccc2)c(OC)cc1O`, for which the TGI stood at 40.9 µM with NCI-H522 lung; 38.2 µM with U251 CNS; 35.3 µM with SK-MEL-28 melanoma; 30.7 µM in the assay with KM12 colon; 43.3 µM in the assay on SW-620 colon; 72 µM with NCI/ADR-RES ovarian. The TGI in the assay with M14 melanoma was found to be 46.4 µM; in the assay with NCI-H460 lung, 39.7 µM.
Turning to `O=C1CC(c2ccccc2)Cc2nc3ccc(Cl)cc3cc21` (stereo not drawn), the GI50 is 0.194 µM with NCI-H522 lung; 0.644 µM with U251 CNS; 1.05 µM with SK-MEL-28 melanoma; 0.339 µM with SF-295 CNS; 0.342 µM in the assay with KM12 colon; 0.323 µM in the assay with SW-620 colon. Also, the results for the GI50 in the assay with NCI/ADR-RES ovarian, with M14 melanoma and in the assay with NCI-H460 lung were 0.0586 µM, 0.0356 µM and 0.343 µM, respectively. Besides, the TGI was 19 µM in the assay with NCI-H522 lung; over 62.2 µM in the assay with U251 CNS; over 100 µM in the assay on SK-MEL-28 melanoma; 17.3 µM with SF-295 CNS; 22.7 µM in the assay on KM12 colon; over 100 µM in the assay on SW-620 colon. In addition, the TGI in the assay on NCI/ADR-RES ovarian was 5.21 µM; with M14 melanoma, 23.8 µM; in the assay with NCI-H460 lung it was over 34.5 µM.
For the molecule `N/C(=N\OC(=O)NC(Cl)=C(Cl)Cl)c1cc(C(F)(F)F)cc(C(F)(F)F)c1`, the TGI stood at 31.3 µM in the assay with U251 CNS; 32.8 µM with SK-MEL-28 melanoma; 34.8 µM in the assay with SF-295 CNS; 31.1 µM with KM12 colon; 40.3 µM with SW-620 colon; 47.2 µM in the assay on NCI/ADR-RES ovarian. Further, the TGI with M14 melanoma is 70.4 µM; with NCI-H460 lung it was 36.8 µM.
With `CNC1=C(C)C(=O)C(C)=C(C(C)(C)CC(=O)n2cc(F)c(=O)[nH]c2=O)C1=O`, the TGI in the assay with NCI-H522 lung, with U251 CNS, in the assay on SK-MEL-28 melanoma, in the assay on SF-295 CNS, in the assay on KM12 colon and in the assay on SW-620 colon was over 100 µM in each case. Further, the TGI with RXF 393 renal, in the assay with M14 melanoma and in the assay with NCI-H460 lung was over 100 µM each time.

Values taken from PubChem BioAssay (NCI).
